Measurements: patent publication US12642805B2, “Use of oxygenated cholesterol sulfates for treating at least one of insulin resistance, diabetes, and prediabetes” (Medicis Pharmaceutical Corporation, priority 2020, dated 2026)

Key:
Type in all cases: in vivo, rat
[1] = excretion mass balance after single intravenous dose; settings: rats, 10 mg/kg intravenous, over 168 hours
Description: (§1) Nine male Sprague Dawley rats (Group 1) were designated for the pharmacokinetic phase, 3 male Sprague Dawley rats (Group 2) for the excretion mass balance phase, and 7 male Sprague Dawley rats (Group 3) and 9 male Long Evans rats (Group 4) for the tissue distribution phase. All animals received a single intravenous dose of [1^4C]-25HC3S at 10 mg/kg and a target radioactivity of 225 μCi/kg. Blood samples were collected from all Group 1 animals at approximately 0.083, 0.25, 0.5, 1, 2, 4, 8, 12, 24, 48, and 72 hours post-dose. Urine and feces were collected from all Group 2 animals periodically through 168 hours post-dose. […] Following blood collection, animals were euthanized by CO2 inhalation and carcasses frozen in a dry ice/hexane bath for processing by quantitative whole body autoradiography. Whole blood, plasma, urine, feces, cage rinse, and cage wash were analyzed for total radioactivity by liquid scintillation counting.

[2] = plasma pharmacokinetics of radioactivity after single oral (gavage) dose; settings: rats, 75 mg/kg single oral (gavage)
Description: The terminal elimination phase T1/2 was 27.3 hours.

[3] = quantitative whole body autoradiography tissue distribution, intravenous, Sprague Dawley rats; settings: 10 mg/kg intravenous
Description: as §1

[4] = quantitative whole body autoradiography tissue distribution, intravenous, Long Evans rats; settings: 10 mg/kg intravenous
Description: as §1

[5] = plasma pharmacokinetics of radioactivity after single intravenous dose; settings: rats, 10 mg/kg single intravenous bolus
Description: as §1

[6] = quantitative whole body autoradiography tissue distribution, oral, Sprague Dawley rats; settings: 75 mg/kg oral
Source text: No [1^4C]-25HC3S-derived radioactivity was detected in the eye (lens).

## C[C@H](CCCC(C)(C)O)[C@H]1CC[C@H]2[C@@H]3CC=C4[14CH2][C@@H](OS(=O)(=O)O)CC[C@]4(C)[C@H]3CC[C@]12C [[4-^14C]-25HC3S]
[1]
  recovered radioactivity in feces: 83.0%
[2]
  terminal elimination phase T1/2, plasma: 27.3 h
[3]
  T1/2 in plasma (QWBA phase): 44.3 h
  T1/2 in whole blood (QWBA phase): 52.2 h
  maximum plasma concentration (QWBA phase): 12,400 ng-equiv./g
  plasma:whole blood AUClast ratio: 0.79
  tissue:plasma ratio (AUClast), liver: 11.4
  tissue:plasma ratio (AUClast), small intestine (wall): 7.44
  tissues in which radioactivity was detected: all tissues except the eye (lens)
[4]; Long Evans (pigmented) rats
  time by which plasma and whole blood concentrations were below quantitation limit: ≤ 336 h
[4]; Long Evans rats
  binding to pigmented or non-pigmented skin or the uveal tract: no difference in binding to pigmented or non-pigmented skin or the uveal tract
  time by which concentrations in skin and uveal tract tissues were below quantitation limit: ≤ 168 h
[5]
  mean plasma C0 (radioactivity): 25,900 ng-equiv./g
[6]
  Skin, thymus, prostate, and pituitary tissue concentrations: < 3000 ng equiv./g
  Uveal tract and brain concentrations: approximately 1000 ng equiv./g
  tissue Tmax: ≤ 6 h
  tissue:plasma ratio (AUClast), adrenal gland: 6.64
  tissue:plasma ratio (AUClast), liver: 6.96
  tissue:plasma ratio (AUClast), small intestine (wall): 15.4
  tissues in which radioactivity was detected: all tissues except the eye (lens)
